Experiments:
human CDK4/cyclin D3 = molecular target: T1, human CDK4/cyclin D3 (Homo sapiens, UniProt P11802); test: Inhibition of CDK4/cyclin D retinoblastoma kinase activity (Ki; % inhibition); format: biochemical; details: for Ki: apparent Ki, CDK4/cyclin D3, Rb substrate
T1 construct: made in house; host or cells: insect cells co-infected with baculovirus vectors
How it was run: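 Insect-cell-expressed CDK4 with truncated cyclin D3 (1-264), 5 nM, phosphorylating His-tagged Rb fragment (386-928) with 25 μM [32/33P]ATP at pH 7.4, 30 °C, 20 min (60 min for tight binders). Filter capture, phosphorimager read; % inhibition at 30 nM compound, Ki from competitive or tight-binding fits.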

HCT-116 cell line = test: Inhibition of cell growth, MTT tetrazolium salt assay; format: cell-based; details: for IC50: Homo sapiens, HCT-116, 120 h, MTT, three to five days
How it was run: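 HCT-116 cells in McCoy's 5A were dosed 4 h after plating with compounds in 0.5% DMSO and grown 3–5 days at 37 °C. Then 0.2 mg/mL MTT was added for 4 h and formazan absorbance read at 540 nm. IC50/IC90 came from semi-log plots against DMSO-only controls.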

CDK2/cyclin A = molecular target: T2, CDK2/cyclin A (Homo sapiens, UniProt P24941); test: Inhibition of CDK2/cyclin A retinoblastoma kinase activity (Ki; % inhibition); format: biochemical; details: for Ki: apparent Ki, CDK2/cyclin A, Rb substrate
T2 construct: made in house; host or cells: CDK2: insect cells (baculovirus); cyclin A: E. coli
How it was run: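 Radiometric filter assay of CDK2/proteolyzed cyclin A (baculovirus-expressed human CDK2, 10 or 19 nM) phosphorylating an Rb fragment with 25 μM [³²P/³³P]ATP in pH 7.4 HEPES, 2% DMSO, at 30 °C for 60 or 75 min under initial-rate conditions. Library compounds screened at 30 nM for % inhibition; apparent Ki from concentration series fit to competitive or tight-binding inhibition equations.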

[1] = HCT-116 cells, 0.25 μM compound

T1 sequence (P11802 whole entry): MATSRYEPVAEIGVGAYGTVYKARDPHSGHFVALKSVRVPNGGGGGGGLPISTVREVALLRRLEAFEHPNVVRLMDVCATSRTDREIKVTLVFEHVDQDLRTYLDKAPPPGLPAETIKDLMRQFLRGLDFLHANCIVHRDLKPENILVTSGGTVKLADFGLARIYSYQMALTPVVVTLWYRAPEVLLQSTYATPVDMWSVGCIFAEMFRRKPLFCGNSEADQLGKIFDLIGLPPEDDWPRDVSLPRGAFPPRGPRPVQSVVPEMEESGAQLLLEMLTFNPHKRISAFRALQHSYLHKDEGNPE
T1 sequence (P30281 1-264 partner limits assumed): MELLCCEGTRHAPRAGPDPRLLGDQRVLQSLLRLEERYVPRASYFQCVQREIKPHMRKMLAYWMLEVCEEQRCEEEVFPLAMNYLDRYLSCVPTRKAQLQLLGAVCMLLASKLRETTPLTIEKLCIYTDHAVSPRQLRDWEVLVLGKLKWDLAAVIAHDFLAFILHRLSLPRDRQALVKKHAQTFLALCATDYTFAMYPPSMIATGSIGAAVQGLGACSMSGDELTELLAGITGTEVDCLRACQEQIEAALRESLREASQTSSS

Row | SMILES | CDK4 % Inhibition at 0.03 μM (human CDK4/cyclin D3; 0.03 μM compound) [%] | CDK2 % Inhibition at 0.03 μM (CDK2/cyclin A; 0.03 μM compound) [%] | CDK4 % Inhibition at 0.03 μM (human CDK4/cyclin D3; at 0.03 μM) [%] | CDK2 % Inhibition at 0.03 μM (CDK2/cyclin A; at 0.03 μM) [%] | HCT-116 % Inhibition at 0.1 μM (HCT-116 cell line; HCT-116 cells, 0.1 μM compound) [%] | HCT-116 % Inhibition at 0.25 μM (HCT-116 cell line; [1]) [%] | HCT-116 % Inhibition at 0.25 μM (HCT-116 cell line; HCT-116, at 0.25 μM) [%] | other results
1 | CN1CC[C@H](NC(=O)c2ccc(Nc3nc(N)c(C(=O)c4c(F)cccc4F)s3)cc2)C1 [Example A32, 4-[4-Amino-5-(2,6-difluoro-benzoyl)-thiazol-2-ylamino]-N-(1-methyl-pyrrolidin-3S-yl)-benzamide] |  |  |  |  |  |  |  | Ki (human CDK4/cyclin D3): 6 nM; IC50 (HCT-116 cell line): 280 nM; Ki (CDK2/cyclin A): 77 nM
2 | CCN(CC)C(=O)c1ccc(Nc2nc(N)c(C(=O)c3c(F)cccc3F)s2)cc1 [Example C232] | 19 | 9 |  |  | 9 | 53 |  | 
3 | Nc1nc(Nc2ccc(C(=O)N3CCC(O)CC3)cc2)sc1C(=O)c1c(F)cccc1F [Example G56] |  |  | 10 | 24 |  |  | 59 | 
4 | CN(C)c1ccc(NC(=O)c2ccc(Nc3nc(N)c(C(=O)c4c(F)cccc4F)s3)cc2)cc1 [Example A16, 4-[4-Amino-5-(2,6-difluoro-benzoyl)-thiazol-2-ylamino]-N-(4-dimethylamino-phenyl)-benzamide] |  |  |  |  |  |  |  | Ki (human CDK4/cyclin D3): 25 nM; IC50 (HCT-116 cell line): 170 nM; Ki (CDK2/cyclin A): 68 nM
5 | CN(CCc1ccccn1)C(=O)c1ccc(Nc2nc(N)c(C(=O)c3c(F)cccc3F)s2)cc1 [Example G71] |  |  | 16 | 3 |  |  | 59 | 
6 | Nc1nc(Nc2ccc(C(=O)N3CCSCC3)cc2)sc1C(=O)c1c(F)cccc1F [Example G26] |  |  | 13 | 3 |  |  | 53 | 
7 | CN(C)CCNC(=O)c1cccc(Nc2nc(N)c(C(=O)c3c(F)cccc3F)s2)c1 [F] |  |  |  |  |  |  |  | Ki (human CDK4/cyclin D3): 140 nM; IC50 (HCT-116 cell line): 1800 nM; Ki (CDK2/cyclin A): 270 nM
8 | COc1ccc(CNC(=O)c2ccc(Nc3nc(N)c(C(=O)c4c(F)cccc4F)s3)cc2)cc1 [Example G169] |  |  | 49 | 38 |  |  | 71 | HCT-116 % Inhibition at 0.1 μM (HCT-116 cell line; HCT-116, at 0.1 μM): 32%
9 | CCCCN(CCO)C(=O)c1ccc(Nc2nc(N)c(C(=O)c3c(F)cccc3F)s2)cc1 [Example G4] |  |  | 4 | −7 |  |  | 53 | 
10 | Nc1nc(Nc2ccc(C(=O)Nc3ccc(S(N)(=O)=O)cc3)cc2)sc1C(=O)c1c(F)cccc1F [Example G82] |  |  | 15 | 24 |  |  | 48 | 
11 | CC(CN(C)C)NC(=O)c1ccc(Nc2nc(N)c(C(=O)c3c(F)cccc3F)s2)cc1O (stereo not shown) [Example D2, 4-[4-Amino-5-(2,6-difluoro-benzoyl)-thiazol-2-ylamino]-N-(2-dimethylamino-1RS-methyl-ethyl)-2-hydroxy-benzamide] |  |  |  |  |  |  |  | Ki (human CDK4/cyclin D3): 25 nM; IC50 (HCT-116 cell line): 580 nM; Ki (CDK2/cyclin A): 51 nM
12 | CC(CO)NC(=O)c1ccc(Nc2nc(N)c(C(=O)c3c(F)cccc3F)s2)cc1 (stereo not shown) [Example G109] |  |  | 22 | 6 |  |  |  | HCT-116 % Inhibition at 0.1 μM (HCT-116 cell line; HCT-116, at 0.1 μM, 0.1 µM): 0%; HCT-116 % Inhibition at 0.25 μM (HCT-116 cell line; HCT-116, at 0.25 μM, 0.25 µM): 54%
13 | CCOC(=O)c1cccc(NC(=O)c2ccc(Nc3nc(N)c(C(=O)c4c(F)cccc4F)s3)cc2)c1 [Example G24] |  |  | 11 | 7 |  |  | 58 | 
14 | CN(Cc1cccnc1)C(=O)c1ccc(Nc2nc(N)c(C(=O)c3c(F)cccc3F)s2)cc1 [Example G20] |  |  | 9 | 10 |  |  | 50 | 
15 | CC(NC(=O)c1ccc(Nc2nc(N)c(C(=O)c3c(F)cccc3F)s2)cc1)C1CCCCC1 (stereo not shown) [Example G388] |  |  |  |  |  |  |  | CDK4 % Inhibition at 0.03 μM (human CDK4/cyclin D3; 0.03 μM compound, 0.03 µM): 8%; HCT-116 % Inhibition at 0.1 μM (HCT-116 cell line; HCT-116 cells, 0.1 μM compound, 0.1 µM): 9%; HCT-116 % Inhibition at 0.25 μM (HCT-116 cell line; HCT-116 cells, 0.25 μM compound, 0.25 µM): 45%; CDK2 % Inhibition at 0.03 μM (CDK2/cyclin A; 0.03 μM compound, 0.03 µM): 3%
16 | Nc1nc(Nc2ccc(C(=O)NCCCN3CCCC3)cc2)sc1C(=O)c1c(F)cccc1F [Example G158] |  |  | 40 | 22 |  |  | 73 | HCT-116 % Inhibition at 0.1 μM (HCT-116 cell line; HCT-116, at 0.1 μM): 0%
17 | CC1CC(NC(=O)c2ccc(Nc3nc(N)c(C(=O)c4c(F)cccc4F)s3)cc2)CC(C)(C)C1 (stereo not shown) [Example G112] |  |  | 13 | −11 |  |  | 57 | HCT-116 % Inhibition at 0.1 μM (HCT-116 cell line; HCT-116, at 0.1 μM): 6%
18 | NC(=O)CNC(=O)c1ccc(Nc2nc(N)c(C(=O)c3c(Cl)cccc3Cl)s2)cc1 [Example B1, 4-[4-Amino-5-(2,6-dichloro-benzoyl)-thiazol-2-ylamino]-N-carbamoylmethyl-benzamide] |  |  |  |  |  |  |  | Ki (human CDK4/cyclin D3): 17 nM; IC50 (HCT-116 cell line): 18000 nM; Ki (CDK2/cyclin A): 65 nM
19 | Nc1nc(Nc2ccc(C(=O)NC3CCS(=O)(=O)C3)cc2)sc1C(=O)c1c(F)cccc1F (stereo not shown) [Example G120] |  |  | 23 | 14 |  |  | 54 | HCT-116 % Inhibition at 0.1 μM (HCT-116 cell line; HCT-116, at 0.1 μM): 0%

Second part, led by results:

Row | CDK4 % Inhibition at 0.03 μM (human CDK4/cyclin D3; 0.03 μM compound) [%] | CDK2 % Inhibition at 0.03 μM (CDK2/cyclin A; 0.03 μM compound) [%] | CDK4 % Inhibition at 0.03 μM (human CDK4/cyclin D3; at 0.03 μM) [%] | CDK2 % Inhibition at 0.03 μM (CDK2/cyclin A; at 0.03 μM) [%] | SMILES | HCT-116 % Inhibition at 0.1 μM (HCT-116 cell line; HCT-116 cells, 0.1 μM compound) [%] | HCT-116 % Inhibition at 0.25 μM (HCT-116 cell line; [1]) [%] | HCT-116 % Inhibition at 0.25 μM (HCT-116 cell line; HCT-116, at 0.25 μM) [%] | other results
20 | 23 | 23 |  |  | Nc1nc(Nc2ccc(C(=O)NCCc3ccc(Cl)c(Cl)c3)cc2)sc1C(=O)c1c(F)cccc1F [Example G211] | 13 | 45 |  | 
21 | 37 | 1 |  |  | CCCCN(CC)CCNC(=O)c1ccc(Nc2nc(N)c(C(=O)c3c(F)cccc3F)s2)cc1 [Example G331] | 54 | 93 |  | 
22 | 34 | 6 |  |  | Nc1nc(Nc2ccc(C(=O)NCCCN(CCO)CCO)cc2)sc1C(=O)c1c(F)cccc1F [Example G339] | 9 | 48 |  | 
23 | 8 | −3 |  |  | Cc1cc(C)cc(NC(=O)c2ccc(Nc3nc(N)c(C(=O)c4c(F)cccc4F)s3)cc2)c1 [Example G297] | 0 | 45 |  | 
24 | −1 | 10 |  |  | Nc1nc(Nc2ccc(C(=O)Nc3cccc(SC(F)(F)F)c3)cc2)sc1C(=O)c1c(F)cccc1F [Example G377] | 25 | 55 |  | 
25 | 12 | −1 |  |  | Cc1cc(NC(=O)c2ccc(Nc3nc(N)c(C(=O)c4c(F)cccc4F)s3)cc2)ccc1F [Example G330] | 2 | 55 |  | 
26 | 19 | 8 |  |  | CCCCN(C)C(=O)c1ccc(Nc2nc(N)c(C(=O)c3c(F)cccc3F)s2)cc1 [Example G218] | 11 | 52 |  | 
27 | 6 | −14 |  |  | C#CCN(C)C(=O)c1ccc(Nc2nc(N)c(C(=O)c3c(F)cccc3F)s2)cc1 [Example G282] | 1 | 56 |  | 
28 | −3 | 3 |  |  | Nc1nc(Nc2ccc(C(=O)Nc3ccc(C(F)(F)F)cc3)cc2)sc1C(=O)c1c(F)cccc1F [Example G368] | 25 | 50 |  | 
29 | 14 | 14 |  |  | Nc1nc(Nc2ccc(C(=O)Nc3ccccc3F)cc2)sc1C(=O)c1c(F)cccc1F [Example G235] | 10 | 51 |  | 
30 | 11 | 10 |  |  | CN(CCC1OCCO1)C(=O)c1ccc(Nc2nc(N)c(C(=O)c3c(F)cccc3F)s2)cc1 [Example G387] | 32 | 52 |  | 
31 | −1 | 1 |  |  | CCN(CCCCO)C(=O)c1ccc(Nc2nc(N)c(C(=O)c3c(F)cccc3F)s2)cc1 [Example G385] | 28 | 50 |  | 
32 |  |  | 29 | 22 | Nc1nc(Nc2ccc(C(=O)NCc3ccccn3)cc2)sc1C(=O)c1c(F)cccc1F [Example G180] |  |  | 68 | HCT-116 % Inhibition at 0.1 μM (HCT-116 cell line; HCT-116, at 0.1 μM): 25%
33 |  |  | 13 | 7 | Nc1nc(Nc2ccc(C(=O)NCCc3ccc(Cl)cc3Cl)cc2)sc1C(=O)c1c(F)cccc1F [Example G196] |  |  | 48 | HCT-116 % Inhibition at 0.1 μM (HCT-116 cell line; HCT-116, at 0.1 μM): 13%
34 | 0 | −7 |  |  | CCCCN(CCCC)C(=O)c1ccc(Nc2nc(N)c(C(=O)c3c(F)cccc3F)s2)cc1 [Example G314] | 9 | 47 |  | 
